# Measurements from PubChem BioAssay AID1963421 (Molecular Pharmacology Branch, DTP, NCI, 2024).
# Test system: 519858-162-T-J1-PDC complex spheroid growth, % test/control
# Test: Anticancer human tumor 519858-162-T-J1-PDC patient-derived colon adenocarcinoma cell line growth inhibition [Asc]
# Conditions: for IC50: curve of first compound; for viability, T/C: stronger effect = lower value
# Description: Multicellular complex tumor spheroid response to apoptosis pathway targeting inhibitors Alrizomadlin, Pelcitoclax, and Dasminapant in combination with a variety of drugs and investigational agents in selected tumor cell lines
# The MDM2 inhibitor alrizomadlin, the Bcl-2/Bcl-xL inhibitor pelcitoclax, and the IAPs inhibitor dasminapant were evaluated both individually and in combination with standard of care and investigational anticancer small molecules within a complex spheroid model of solid tumors. . Complex spheroids include a stromal component modeled by human endothelial cells (HUVEC) and fibroblasts modeled by human mesenchymal stem cells (MSCs). The concentration ranges selected for each drug and investigational agent were based upon clinically achievable concentrations if the clinical Cmax of the agent was known.
# Compounds. The drugs and investigational agents: alrizomadlin (APG-115; NSC831270), pelcitoclax (APG-1252; NSC835773), dasminapant (APG-1387;NSC834197), TAK-243 (NSC785004), copanlisib (NSC809693), olaparib (NSC753686), talazoparib (NSC767125), cobimetinib (NSC 768068), eltanexor (KPT-8602, NSC 794443), abemaciclib (NSC 768073), sotorasib (NSC818433), adagrasib (NSC 831453), MRTX-1133 (NSC 836407), Iadademestat (ORY1001, NSC 806812), and RMC-4630 (NSC839698), were obtained from the NCI Developmental Therapeutics Program Chemical Repository. The FDA-approved anticancer drug set is available from the Developmental Therapeutics Program at https://dtp.cancer.gov/organization/dscb/obtaining/available plates.htm. […] The stock solutions were prepared in dimethyl sulfoxide (DMSO, Sigma-Aldrich, St. Louis, MO, cat. D2650) at 800-fold the tested concentration and stored at -70 degrees C prior to their use. All drugs and investigational agents were tested over a range starting from a high concentration at or near the clinical Cmax and decreasing in half-log increments. If the clinical Cmax for an agent had not been determined, the highest concentration tested was 10 microM.
# The patient-derived cancer (PDC) cell lines include five colon adenocarcinomas: 186277-243-T-J2-PDC, 616215-338-R-J1-PDC, 439559-082-T-J2-PDC, 463943-066-T-J2-PDC, and 519858-162-T-J1-PDC; three pancreatic carcinomas: 323965-272-R-J2-PDC, 521955-158-R6-J3-PDC, and 521955-158-R2-J5-PDC; two uterine sarcomas: 327498-152-R-J2-PDC and 993429-296-R-J1-PDC; two rhabdomyosarcomas: 755483-174-R-J1-PDC and 772245-204-R-J1-PDC; two soft tissue sarcomas: 126254-015-R-J1-PDC and 494315-158-R-J1-PDC; two malignant fibrous histiocytomas: 317291-083-R-J1-PDC and 596521-263-R-J1-PDC; two breast carcinomas: 171881-019-R-J1-PDC and 885512-296-R-J2-PDC; and one ovarian carcinoma: 6556581-035-R-J-PDC were obtained from the NCI PDMR, (https://pdmr.cancer.gov). The established cell lines HSSY-2 synovial sarcoma (RRID:CVCL 8719), SYO-1 synovial sarcoma (RRID:CVCL_7146), MPNST malignant peripheral neural sheath tumor were obtained from the Sloan Kettering Institute. The following established cell lines were purchased from the American Type Culture Collection (ATCC, Manassas, VA), Sor the received from the NCI repository:, PANC-1 pancreatic carcinoma (CRL-1469, RRID:CVCL_0480), OVCAR-5 ovarian carcinoma (RRID:CVCL_1628), OVCAR-8 ovarian carcinoma (RRID:CVCL_1629), , MCF-7 breast carcinoma (CRL-12584, RRID:CVCL_0031), MDA-MB-231 breast carcinoma (CRL-12532, RRID:CVCL_0062), NCI-H1876 small cell lung carcinoma (CRL-5902, RRID:CVCL_1503), NCI-H510A small cell lung carcinoma (HTB-184, RRID:CVCL_1565), NCI-H1417 (CRL-5869, RRID:CVCL_1469), and NCI-H196 small cell lung carcinoma (CRL-5823, RRID:CVCL_1509). Dr. Peter Houghton (Greehey Children's Cancer Research Institute, University of Texas Health Science Center, San Antonio, TX) provided Rh-18 rhabdomyosarcoma (RRID:CVCL_1659). Pooled donor human umbilical vein endothelial cells (HUVEC, Lonza, cat. CC-2519) and human mesenchymal stem cells (hMSC, Lonza, cat. PT-2501) were purchased from Lonza (Walkersville, MD).
# Cell Culture. […]
# [1] = second compound 0.0316 µM, first compound 0.00316 µM
# [2] = second compound 0.0316 µM, first compound 0.01 µM
# [3] = second compound 0.0316 µM, first compound 0.0316 µM
# [4] = second compound 0.0316 µM, first compound 0.1 µM
# [5] = second compound 0.1 µM, first compound 0.00316 µM
# [6] = second compound 0.1 µM, first compound 0.01 µM
# [7] = second compound 0.1 µM, first compound 0.0316 µM
# [8] = second compound 0.1 µM, first compound 0.1 µM
# [9] = second compound 0.316 µM, first compound 0.00316 µM
# [10] = second compound 0.316 µM, first compound 0.01 µM
# [11] = second compound 0.316 µM, first compound 0.0316 µM
# [12] = second compound 0.316 µM, first compound 0.1 µM
# [13] = second compound 1 µM, first compound 0.00316 µM
# [14] = second compound 1 µM, first compound 0.01 µM
# [15] = second compound 1 µM, first compound 0.0316 µM
# [16] = second compound 1 µM, first compound 0.1 µM
# 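Note: seven day drug exposure begun three days after spheroid seeding.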
# 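Throughout, for viability, T/C: 100% = DMSO vehicle wells and lower values mean less viable spheroid.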
smiles,measurement,setting,value
CNC(C)C(=O)NC1CN(S(=O)(=O)c2cccc(S(=O)(=O)N3CCC4CCC(C(=O)NC(c5ccccc5)c5ccccc5)N4C(=O)C(NC(=O)C(C)NC)C3)c2)CCC2CCC(C(=O)NC(c3ccccc3)c3ccccc3)N2C1=O (centres undefined) + Cc1c(S(C)(=O)=O)c(-c2cc(F)cc(N3CCN(c4ccc(NS(=O)(=O)c5ccc(NC(CCN6CCC(C(=O)OCCCP(=O)(O)O)CC6)CSc6ccccc6)c(S(=O)(=O)C(F)(F)F)c5)cc4)CC3)c2)c(-c2ccc(Cl)cc2)n1C(C)C,IC50,second compound 0.0316 µM,> 1 µM
same,IC50,second compound 0.1 µM,> 1 µM
same,IC50,second compound 0.316 µM,> 1 µM
same,IC50,second compound 1 µM,> 1 µM
same,IC50,second compound 3.16 µM,> 1 µM
same,IC50,second compound 10 µM,0.506 µM
same,"viability, T/C",[1],92.5%
same,"viability, T/C",[2],110%
same,"viability, T/C",[3],45%
same,"viability, T/C",[4],110%
same,"viability, T/C","second compound 0.0316 µM, first compound 0.316 µM",81.5%
same,"viability, T/C","second compound 0.0316 µM, first compound 1 µM",81.5%
same,"viability, T/C",[5],113%
same,"viability, T/C",[6],117%
same,"viability, T/C",[7],124%
same,"viability, T/C",[8],90%
same,"viability, T/C","second compound 0.1 µM, first compound 0.316 µM",76.7%
same,"viability, T/C","second compound 0.1 µM, first compound 1 µM",97.5%
same,"viability, T/C",[9],104%
same,"viability, T/C",[10],107%
same,"viability, T/C",[11],86.8%
same,"viability, T/C",[12],78.5%
same,"viability, T/C","second compound 0.316 µM, first compound 0.316 µM",72.3%
same,"viability, T/C","second compound 0.316 µM, first compound 1 µM",87.1%
same,"viability, T/C",[13],102%
same,"viability, T/C",[14],100%
same,"viability, T/C",[15],83.6%
same,"viability, T/C",[16],93%
same,"viability, T/C","second compound 1 µM, first compound 0.316 µM",96.5%
same,"viability, T/C","second compound 1 µM, first compound 1 µM",68.9%
same,"viability, T/C","second compound 3.16 µM, first compound 0.00316 µM",86.9%
same,"viability, T/C","second compound 3.16 µM, first compound 0.01 µM",93%
same,"viability, T/C","second compound 3.16 µM, first compound 0.0316 µM",95.7%
same,"viability, T/C","second compound 3.16 µM, first compound 0.1 µM",82.5%
same,"viability, T/C","second compound 3.16 µM, first compound 0.316 µM",66.8%
same,"viability, T/C","second compound 3.16 µM, first compound 1 µM",75%
same,"viability, T/C","second compound 10 µM, first compound 0.00316 µM",60.5%
same,"viability, T/C","second compound 10 µM, first compound 0.01 µM",63.2%
same,"viability, T/C","second compound 10 µM, first compound 0.0316 µM",70.2%
same,"viability, T/C","second compound 10 µM, first compound 0.1 µM",49%
same,"viability, T/C","second compound 10 µM, first compound 0.316 µM",63.1%
same,"viability, T/C","second compound 10 µM, first compound 1 µM",33.9%
NC1CCC(NC2CC2c2ccccc2)CC1 (centres undefined) + CNC(C)C(=O)NC1CN(S(=O)(=O)c2cccc(S(=O)(=O)N3CCC4CCC(C(=O)NC(c5ccccc5)c5ccccc5)N4C(=O)C(NC(=O)C(C)NC)C3)c2)CCC2CCC(C(=O)NC(c3ccccc3)c3ccccc3)N2C1=O,IC50,second compound 0.00316 µM,> 0.1 µM
same,IC50,second compound 0.01 µM,> 0.1 µM
same,IC50,second compound 0.0316 µM,> 0.1 µM
same,IC50,second compound 0.1 µM,> 0.1 µM
same,IC50,second compound 0.316 µM,> 0.1 µM
same,IC50,second compound 1 µM,> 0.1 µM
same,"viability, T/C","second compound 0.00316 µM, first compound 0.000316 µM",106%
same,"viability, T/C","second compound 0.00316 µM, first compound 0.001 µM",90.1%
same,"viability, T/C","second compound 0.00316 µM, first compound 0.00316 µM",117%
same,"viability, T/C","second compound 0.00316 µM, first compound 0.01 µM",112%
same,"viability, T/C","second compound 0.00316 µM, first compound 0.0316 µM",92.4%
same,"viability, T/C","second compound 0.00316 µM, first compound 0.1 µM",85.3%
same,"viability, T/C","second compound 0.01 µM, first compound 0.000316 µM",129%
same,"viability, T/C","second compound 0.01 µM, first compound 0.001 µM",83.7%
same,"viability, T/C","second compound 0.01 µM, first compound 0.00316 µM",112%
same,"viability, T/C","second compound 0.01 µM, first compound 0.01 µM",88.5%
same,"viability, T/C","second compound 0.01 µM, first compound 0.0316 µM",109%
same,"viability, T/C","second compound 0.01 µM, first compound 0.1 µM",106%
same,"viability, T/C","second compound 0.0316 µM, first compound 0.000316 µM",89%
same,"viability, T/C","second compound 0.0316 µM, first compound 0.001 µM",111%
same,"viability, T/C",[1],91.9%
same,"viability, T/C",[2],97.4%
same,"viability, T/C",[3],95.5%
same,"viability, T/C",[4],102%
same,"viability, T/C","second compound 0.1 µM, first compound 0.000316 µM",105%
same,"viability, T/C","second compound 0.1 µM, first compound 0.001 µM",112%
same,"viability, T/C",[5],121%
same,"viability, T/C",[6],94.9%
same,"viability, T/C",[7],109%
same,"viability, T/C",[8],90%
same,"viability, T/C","second compound 0.316 µM, first compound 0.000316 µM",77.2%
same,"viability, T/C","second compound 0.316 µM, first compound 0.001 µM",81.5%
same,"viability, T/C",[9],118%
same,"viability, T/C",[10],81.4%
same,"viability, T/C",[11],92.1%
same,"viability, T/C",[12],102%
same,"viability, T/C","second compound 1 µM, first compound 0.000316 µM",82.9%
same,"viability, T/C","second compound 1 µM, first compound 0.001 µM",101%
same,"viability, T/C",[13],115%
same,"viability, T/C",[14],81.3%
same,"viability, T/C",[15],85.8%
same,"viability, T/C",[16],80.3%
